Data reported in article PMC9019904, “AD Informer Set: Chemical tools to facilitate Alzheimer's disease drug discovery” (Alzheimer's & Dementia : Translational Research & Clinical …, 2022).
In brackets after ≈: the same amount, converted by molar mass.

Experiments:
[1] = tested on: BV2 (mouse microglia) cell line; assay: pHrodo-myelin phagocytosis/cell viability high content imaging assay: viability (cell count, nuclear area, nuclear intensity)
Outline: (§1)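 Duplicate single-point screen at 10 μM over 48 h, combined with pHrodo-myelin phagocytosis during the last 20 h. Cytotoxicity is taken from imaged cell counts and nuclear intensity changes, normalized to untreated wells as % control.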

[2] = tested on: BV2 (mouse microglia) cell line; assay: pHrodo-myelin phagocytosis/cell viability high content imaging assay: phagocytosis signal; format: cell-based
Outline: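 High content imaging, roughly 22 hours post pHrodo-myelin addition, recorded phagocytosis signal alongside viability in microglial lines BV2 (mouse) and HMC3 (human). Apoptosis tracked through intensity rise (early) and fall (later) among three extracted measurements.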

[3] = Kinetic solubility in aqueous buffer pH 7.4 by total chemiluminescent nitrogen determination (Analiza); conditions: aqueous buffer, pH 7.4, aqueous buffer, kinetic from dmso stock
[4] = tested on: HMC3 (human microglia) cell line; assay: pHrodo-myelin phagocytosis/cell viability high content imaging assay: viability (cell count, nuclear area, nuclear intensity); conditions: HMC3, 10 μM, cell count <70% control
Outline: as §1

Row | SMILES | Mouse microglial cytotoxicity at 10 μM (<70% control) ([1]; 10 μM, BV2) | Stimulation of mouse microglial phagocytosis at 10 μM (>150% control) ([2]; 10 μM, BV2) | solubility kinetic [3] | Mouse microglial cytotoxicity at 10 μM (<70% control) ([1]; BV2, 10 μM, cell count <70% control) | Human microglial cytotoxicity at 10 μM (<70% control) [4] | Inhibition of mouse microglial phagocytosis at 10 μM (<70% control) ([2]; BV2, 10 μM) | Mouse microglial cytotoxicity at 10 μM (<70% control) ([1]; BV2, 10 μM) | Stimulation of mouse microglial phagocytosis at 10 μM (>150% control) ([2]; BV2, 10 μM)
1 | N#Cc1ccc(COC[C@H]2O[C@@H](n3c(NCc4ccc(Cl)c(Cl)c4)nc4c(N)ncnc43)[C@H](O)[C@@H]2O)cc1 [VER-155008] | Y (The compound was found to be cytotoxic (cell count threshold: <70% control) when murine immortalized microglial cells were dosed at 10 μM (Y: yes)) | Y (The compound was found to stimulate phagocytosis (response threshold: >150% control) when murine immortalized microglial cells were dosed at 10 μM (Y: yes)) | 14.3 µM (≈ 7.96 µg/mL) | – | – | – | – | –
2 | CCS(=O)(=O)N1CCN(c2ccc(Nc3ncc(C(N)=O)c(NC4CC4)n3)cc2)CC1 [Cerdulatinib] | – | – | 1.8 µM (≈ 0.802 µg/mL) | Y (The compound was found to be cytotoxic (cell count threshold: <70% control) when murine immortalized microglial cells were dosed at 10 μM (Y: yes)) | Y (The compound was found to be cytotoxic (cell count threshold: <70% control) when human immortalized microglial cells were dosed at 10 μM (Y: yes)) | Y (The compound was found to inhibit phagocytosis (response threshold: <70% control) when murine immortalized microglial cells were dosed at 10 μM (Y: yes)) | – | –
3 | O=C(NNc1nc2cc(F)ccc2n2cccc12)c1cnccn1 [SC144] | Y (The compound was found to be cytotoxic (cell count threshold: <70% control) when murine immortalized microglial cells were dosed at 10 μM (Y: yes)) | Y (The compound was found to stimulate phagocytosis (response threshold: >150% control) when murine immortalized microglial cells were dosed at 10 μM (Y: yes)) | 2.7 µM (≈ 0.87 µg/mL) | – | – | – | – | –
4 | O=C(O)c1cc2nc(-c3ccc(Cl)cc3)cc(C(F)(F)F)n2n1 [ZINC00184372] | – | Y (The compound was found to stimulate phagocytosis (response threshold: >150% control) when murine immortalized microglial cells were dosed at 10 μM (Y: yes)) | 270 µM (≈ 92.2 µg/mL) | – | – | – | – | –
5 | Clc1ccc(N/N=C(\c2ccccc2)c2ccccn2)nc1 [JIB-04] | Y (The compound was found to be cytotoxic (cell count threshold: <70% control) when murine immortalized microglial cells were dosed at 10 μM (Y: yes)) | Y (The compound was found to stimulate phagocytosis (response threshold: >150% control) when murine immortalized microglial cells were dosed at 10 μM (Y: yes)) | 24.3 µM (≈ 7.5 µg/mL) | – | – | – | – | –
6 | COc1cc(N2CCC(N3CCN(C)CC3)CC2)ccc1Nc1ncc(Cl)c(Nc2ccccc2P(C)(C)=O)n1 [Brigatinib] | – | – | 123 µM (≈ 72.1 µg/mL) | – | – | – | Y (The compound was found to be cytotoxic (cell count threshold: <70% control) when murine immortalized microglial cells were dosed at 10 μM (Y: yes)) | Y (The compound was found to stimulate phagocytosis (response threshold: >150% control) when murine immortalized microglial cells were dosed at 10 μM (Y: yes))
7 | C=CC[C@@H]1/C=C(\C)C[C@H](C)C[C@H](OC)[C@H]2O[C@@](O)(C(=O)C(=O)N3CCCC[C@H]3C(=O)O[C@H](/C(C)=C/[C@@H]3CC[C@@H](O)[C@H](OC)C3)[C@H](C)[C@@H](O)CC1=O)[C@H](C)C[C@@H]2OC [Tacrolimus] | Y (The compound was found to be cytotoxic (cell count threshold: <70% control) when murine immortalized microglial cells were dosed at 10 μM (Y: yes)) | Y (The compound was found to stimulate phagocytosis (response threshold: >150% control) when murine immortalized microglial cells were dosed at 10 μM (Y: yes)) | 95.5 µM (≈ 76.8 µg/mL) | – | – | – | – | –
